Assay results from US5030449A, “Synthetic vaccine against AIDS virus” (The United States of America as represented by the …, priority 1988, dated 1991).

Test system: HIV envelope-immune murine T cells (lymph node cells of gp160-immunized mice)
Test: Lymph node T-cell proliferation assay ([3H]thymidine incorporation, stimulation index)
Format: cell-based, mouse
Conditions: for S.I. (stimulation index, experimental cpm/control cpm): peptide 2 μM
From the text: B10.BR/SgSn (H-2^k) and B10.D2/nSn (H-2^d) mice were obtained from the Jackson Laboratories (Bar Harbor, Me.). B10.S(9R)/Sg (H-2^t4) and B10.A(5R)/SgSn (H-2^i5) mice were bred at the NIH breeding colony from breeding pairs obtained from D. J. Stimpfling (Great Falls, Mont.) and from Jackson Laboratories. Mice from the strain B10.S(9R) and B10.A(5R) were chosen because both I-A and I-E molecules of the H-2^s and H-2^b haplotypes are expressed in these recombinant strains, whereas I-E is not expressed in nonrecombinant H-2^b and H-2^s mice.
Mice were immunized s.c. with 10-30 ug of recombinant gp160 1:1 in complete Freund's adjuvant (CFA) at the base of the tail. (The dose was determined according to the purity of the gp160 preparation.) Eight to ten days later, periaortic and inguinal lymph nodes were removed and prepared in a single-cell suspension in complete T-cell medium in accordance with the method of Berkower et al, 1984, J. Immunol., 132:1370. Lymph node cells at 4×10^5 cells per well were added to each well of flat-bottomed 96-well microtiter plates (Costar, Cambridge, Mass.). The 44 peptides were added to the wells to make a final volume of 0.2 ml of medium, and each peptide was tested in triplicate. On the fourth day of culture, 1 uCi of [^3 H]thymidine (6.7 Ci/mmol; New England Nuclear, Boston, Mass.) was added to each well. Eighteen hours later, […] incorporation into DNA, as a measure of proliferation, was determined using liquid scintillation counting. The stimulation index represents a ratio of experimental counts over background counts without antigen.
Mice of the H-2^k, H-2^d, H-^i5, and H-2^t4 haplotypes were immunized s.c. in the tail with recombinant gp160 in CFA at a dose of 20-30 ug per mouse. Eight to ten days later the mice were sacrificed, the periaortic and inguinal lymph nodes were isolated, and proliferation of lymph node cells in the presence or absence of antigen was determined as described herein supra.

WDQSLKPCVKLTPLCV [HP-8, residues 119-134 of HIV envelope]
S.I. (stimulation index, experimental cpm/control cpm) (B10.A(5R) H-2^i5 mice): 1.51 | S.I. (stimulation index, experimental cpm/control cpm) (B10.BR H-2^k mice): 2.24 | S.I. (stimulation index, experimental cpm/control cpm) (B10.D2 H-2^d mice): 1.68 | S.I. (stimulation index, experimental cpm/control cpm) (B10.S(9R) H-2^t4 mice): 1.23 | T-cell proliferative response (in words) (H-2^k mice, initial screening): diminishing response
